Assays:
Format in all cases: cell-based
[1] = system: A. niger ATCC 16404; assay: MIC determination, test tube method; conditions: tryptic soy broth, 22.5° C. for 48-72 hours
Text: (§1) The Minimum Inhibitory concentration (MIC) is the lowest dilution which inhibits the growth of microorganism. MIC assays generate a value in μg/mL for the exact, lowest concentration of the antimicrobial agent that prevents the visible growth of bacteria. MIC was detected by using test tube method using different dilution in sterile tryptic soya broth (growth medium). (Ref.: https://www.ncbi.nlm.nih.gov/pmc/articles/PMC7470068/ this link describes about Test tube method of MIC)
(§2) • Working stock preparation: 1% in sterile D/W • Diluent: Sterile tryptic soy broth • Dilution range: 0.1% to 1%, further diluted to 100 ppm to 1000 ppm • Addition of culture: 0.1 mL of 18-24 hours old culture • Incubation temperature and time: • Bacteria: 37° C. for 24-48 hours • Y/M: 22.5° C. for 48-72 hours
(§3) Antimicrobial efficacy of diamidoquat was studied as per MIC standard protocol.

[2] = system: C. albicans ATCC 10231; assay: MIC determination, test tube method; conditions: tryptic soy broth, 22.5° C. for 48-72 hours
Text: as §1, §2, §3

[3] = system: E. coli ATCC 10142; assay: MIC determination, test tube method; conditions: tryptic soy broth, 37° C. for 24-48 hours
Text: as §1, §2, §3

[4] = system: S. aureus ATCC 6538; assay: MIC determination, test tube method; conditions: tryptic soy broth, 37° C. for 24-48 hours
Text: as §1, §2, §3

[5] = system: P. aeruginosa ATCC 9372; assay: MIC determination, test tube method; conditions: tryptic soy broth, 37° C. for 24-48 hours
Text: as §1, §2
(§4) The minimum inhibitory concentration (MIC) of Diamidoquat (DAQ), Benzalkonium chloride (BKC) and Esterquat (EQ) is shown in Table 1.
as §3

[6] = system: Test Organism; assay: Overall MIC over all test organisms
Text: as §1, §2, §4, §3

Benzalkonium chloride [BKC]
MIC [1]: 0.7%
MIC [2]: 0.7%
MIC [3]: 0.7%
MIC [4]: 0.6%
MIC [5]: 0.7%
Overall MIC [6]: 0.7%

From patent US12595438B2, “Biodegradable quaternary ammonium compound” (GALAXY SURFACTANTS LTD., priority 2021, dated 2026)
